This is an account of results in US20230310428A1, “EGFR INHIBITOR AND PREPARATION METHOD AND USE THEREOF” (HONGYUN BIOTECH CO., LTD., priority 2020, published 2023).

Where only a bound is given, the exact number is not on record here.

Experiment in all cases: Growth inhibitory activity of compounds on BaF3 cell lines stably transfected with kinase (MTS, 48 h)
What all share (type): cell-based

The target of experiment [1] is T1, various mutants of kinase EGFR (BaF3 cell lines stably transfected with kinase) (Homo sapiens, UniProt P00533, L858R).
T1 construct: expressed in transfected cells; host or cells: BaF3
To be noted: BaF3 cell line stably transfected with EGFR L858R, read-out: L858R growth inhibitory activity IC50. In short, it runs like this: (§1)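 OD at 490 nm after 1-4 h MTS/PES incubation gave growth inhibition relative to 0.1% DMSO negative and cell-free medium blank. Compounds: 8-point 1/3 dilution from 10 µM, 48 h, 37 °C. IC50 from inhibition curves; duplicates.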

Experiment [2] concerns the target T2, various mutants of kinase EGFR (BaF3 cell lines stably transfected with kinase) (Homo sapiens, UniProt P00533, C797S/L858R/T790M).
T2 construct: expressed in transfected cells; host or cells: BaF3
To be noted: BaF3 cell line stably transfected with EGFR L858R/T790M/C797S, read-out: L858R/T790M/ C797S growth inhibitory activity IC50. A digest of the protocol: as §1

Experiment [3] concerns the target T3, various mutants of kinase EGFR (BaF3 cell lines stably transfected with kinase) (Homo sapiens, UniProt P00533, T790M/C797S, form not given).
T3 construct: other: BaF3 cells stably transfected with EGFR Δ19Del/T790M/C797S; MTS, 48; other: BaF3 cell line stably transfected with EGFR Δ19Del/T790M/C7
To be noted: BaF3 cell line stably transfected with EGFR Δ19Del/T790M/C797S, read-out: Δ19Del/T790M/ C797S growth inhibitory activity IC50. A digest of the protocol:
as §1

Experiment [4] deals with T4, various mutants of kinase EGFR (BaF3 cell lines stably transfected with kinase) (Homo sapiens, UniProt P00533).
T4 construct: other: BaF3 cells stably transfected with EGFR Δ19Del; MTS, 48 h; other: BaF3 cell line stably transfected with EGFR Δ19Del
T4 sequence (P00533 with tags, fused parts or gaps DEL746-750): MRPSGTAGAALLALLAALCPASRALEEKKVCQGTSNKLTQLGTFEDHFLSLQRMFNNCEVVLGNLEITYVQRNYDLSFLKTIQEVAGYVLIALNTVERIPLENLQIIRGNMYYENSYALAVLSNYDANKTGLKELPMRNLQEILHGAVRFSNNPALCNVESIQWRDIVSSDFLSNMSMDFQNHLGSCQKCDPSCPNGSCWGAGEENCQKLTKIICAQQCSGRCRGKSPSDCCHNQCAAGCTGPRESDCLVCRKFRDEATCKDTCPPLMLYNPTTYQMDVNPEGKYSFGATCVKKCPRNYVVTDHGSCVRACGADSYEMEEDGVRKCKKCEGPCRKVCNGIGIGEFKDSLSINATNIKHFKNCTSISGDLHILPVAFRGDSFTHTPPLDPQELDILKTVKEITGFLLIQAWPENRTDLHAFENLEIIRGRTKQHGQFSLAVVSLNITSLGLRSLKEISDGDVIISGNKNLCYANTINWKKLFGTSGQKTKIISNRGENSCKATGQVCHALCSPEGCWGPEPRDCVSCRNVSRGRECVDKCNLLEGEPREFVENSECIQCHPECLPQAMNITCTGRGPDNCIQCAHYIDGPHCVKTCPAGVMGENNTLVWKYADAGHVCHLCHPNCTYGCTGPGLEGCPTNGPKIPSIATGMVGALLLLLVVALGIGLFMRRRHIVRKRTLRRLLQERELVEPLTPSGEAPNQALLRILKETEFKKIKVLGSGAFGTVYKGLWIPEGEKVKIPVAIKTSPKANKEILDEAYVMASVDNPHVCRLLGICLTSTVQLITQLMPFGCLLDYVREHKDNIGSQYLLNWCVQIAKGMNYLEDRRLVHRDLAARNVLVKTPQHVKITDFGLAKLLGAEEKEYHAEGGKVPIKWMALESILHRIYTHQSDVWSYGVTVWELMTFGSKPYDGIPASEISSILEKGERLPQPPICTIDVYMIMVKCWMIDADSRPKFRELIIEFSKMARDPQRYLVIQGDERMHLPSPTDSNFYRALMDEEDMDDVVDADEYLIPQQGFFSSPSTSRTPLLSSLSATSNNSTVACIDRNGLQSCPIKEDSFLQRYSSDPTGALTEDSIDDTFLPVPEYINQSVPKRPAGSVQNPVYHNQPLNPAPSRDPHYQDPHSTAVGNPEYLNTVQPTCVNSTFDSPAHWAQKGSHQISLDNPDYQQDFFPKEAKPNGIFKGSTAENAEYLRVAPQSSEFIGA
As to conditions: BaF3 cell line stably transfected with EGFR Δ19Del, read-out: Δ19Del growth inhibitory activity IC50. In short, it runs like this: as §1

The target of experiment [5] is T5, various mutants of kinase EGFR (BaF3 cell lines stably transfected with kinase) (Homo sapiens, UniProt P00533, T790M, form not given).
T5 construct: other: BaF3 cells stably transfected with EGFR Δ19Del/T790M; MTS, 48 h; other: BaF3 cell line stably transfected with EGFR Δ19Del/T790M; MTS, 48
T5 sequence (P00533 with tags, fused parts or gaps DEL746-750/T790M, form open): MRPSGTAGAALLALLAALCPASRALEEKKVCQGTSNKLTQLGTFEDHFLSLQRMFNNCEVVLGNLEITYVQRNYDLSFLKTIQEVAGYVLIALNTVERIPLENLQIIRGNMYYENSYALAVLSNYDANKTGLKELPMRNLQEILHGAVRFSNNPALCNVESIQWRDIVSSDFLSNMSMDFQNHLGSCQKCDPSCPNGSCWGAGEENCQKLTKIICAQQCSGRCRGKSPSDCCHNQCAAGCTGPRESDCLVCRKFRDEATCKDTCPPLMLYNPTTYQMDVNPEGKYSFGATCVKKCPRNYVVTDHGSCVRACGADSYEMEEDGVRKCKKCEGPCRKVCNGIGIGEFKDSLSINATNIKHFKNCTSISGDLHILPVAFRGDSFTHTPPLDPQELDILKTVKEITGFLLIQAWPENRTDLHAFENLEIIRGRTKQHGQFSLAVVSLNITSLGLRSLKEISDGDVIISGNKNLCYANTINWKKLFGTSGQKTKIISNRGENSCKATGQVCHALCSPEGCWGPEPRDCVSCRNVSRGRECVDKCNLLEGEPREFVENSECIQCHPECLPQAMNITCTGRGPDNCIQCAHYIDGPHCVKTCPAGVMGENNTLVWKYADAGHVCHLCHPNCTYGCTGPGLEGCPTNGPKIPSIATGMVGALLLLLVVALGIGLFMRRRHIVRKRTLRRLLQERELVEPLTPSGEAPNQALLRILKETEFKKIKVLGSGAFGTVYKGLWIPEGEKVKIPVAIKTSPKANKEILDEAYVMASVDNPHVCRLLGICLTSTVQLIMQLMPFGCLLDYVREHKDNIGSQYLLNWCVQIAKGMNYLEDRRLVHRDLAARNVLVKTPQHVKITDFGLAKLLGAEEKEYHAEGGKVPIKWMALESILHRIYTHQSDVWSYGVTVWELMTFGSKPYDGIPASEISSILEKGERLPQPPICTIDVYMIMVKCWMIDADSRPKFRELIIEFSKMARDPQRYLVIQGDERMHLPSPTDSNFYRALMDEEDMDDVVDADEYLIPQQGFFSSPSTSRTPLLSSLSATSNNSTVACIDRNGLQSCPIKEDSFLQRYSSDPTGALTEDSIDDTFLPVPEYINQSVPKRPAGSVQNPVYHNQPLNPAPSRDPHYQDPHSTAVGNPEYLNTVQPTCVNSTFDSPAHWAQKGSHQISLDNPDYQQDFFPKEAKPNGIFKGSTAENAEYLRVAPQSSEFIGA
As to conditions: BaF3 cell line stably transfected with EGFR Δ19Del/T790M, read-out: Δ19Del/ T790M growth inhibitory activity IC50. In short, it runs like this:
as §1

Experiment [6] deals with T6, various mutants of kinase EGFR (BaF3 cell lines stably transfected with kinase) (Homo sapiens, UniProt P00533, L858R/T790M).
T6 construct: expressed in transfected cells; host or cells: BaF3
As to conditions: BaF3 cell line stably transfected with EGFR L858R/T790M, read-out: L858R/ T790M growth inhibitory activity IC50. In short, it runs like this:
as §1

T2 sequence (P00533 25-1210 T790M/C797S/L858R): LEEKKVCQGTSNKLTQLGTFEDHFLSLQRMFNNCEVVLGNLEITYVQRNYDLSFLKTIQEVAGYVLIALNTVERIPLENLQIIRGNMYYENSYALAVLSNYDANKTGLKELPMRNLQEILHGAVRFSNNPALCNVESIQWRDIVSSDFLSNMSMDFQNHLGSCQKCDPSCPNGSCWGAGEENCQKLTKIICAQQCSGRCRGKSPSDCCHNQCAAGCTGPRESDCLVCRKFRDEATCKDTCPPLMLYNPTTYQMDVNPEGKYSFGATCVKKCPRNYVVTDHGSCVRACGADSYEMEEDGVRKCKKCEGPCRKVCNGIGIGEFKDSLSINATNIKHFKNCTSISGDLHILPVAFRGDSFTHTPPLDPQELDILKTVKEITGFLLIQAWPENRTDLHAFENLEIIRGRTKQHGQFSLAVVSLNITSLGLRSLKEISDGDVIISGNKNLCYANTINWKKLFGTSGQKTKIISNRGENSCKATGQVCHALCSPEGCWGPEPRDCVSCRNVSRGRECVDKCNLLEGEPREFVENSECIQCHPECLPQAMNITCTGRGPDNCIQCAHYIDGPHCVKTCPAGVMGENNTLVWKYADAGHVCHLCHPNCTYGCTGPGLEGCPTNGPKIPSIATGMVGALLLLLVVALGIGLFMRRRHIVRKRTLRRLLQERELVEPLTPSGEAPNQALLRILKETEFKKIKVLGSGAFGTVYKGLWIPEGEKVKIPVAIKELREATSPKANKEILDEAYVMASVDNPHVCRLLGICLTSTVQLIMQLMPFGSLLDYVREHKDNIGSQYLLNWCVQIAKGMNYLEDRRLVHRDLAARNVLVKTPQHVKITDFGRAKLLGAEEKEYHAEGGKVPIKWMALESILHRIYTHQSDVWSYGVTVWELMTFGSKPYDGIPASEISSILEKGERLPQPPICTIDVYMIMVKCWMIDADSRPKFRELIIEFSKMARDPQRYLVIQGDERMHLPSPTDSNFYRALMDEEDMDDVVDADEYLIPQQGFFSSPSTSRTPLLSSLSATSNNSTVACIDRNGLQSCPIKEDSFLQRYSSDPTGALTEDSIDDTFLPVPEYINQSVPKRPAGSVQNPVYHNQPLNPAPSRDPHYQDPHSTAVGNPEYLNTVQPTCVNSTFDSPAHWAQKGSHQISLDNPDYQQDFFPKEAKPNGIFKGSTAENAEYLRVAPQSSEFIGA
T3 sequence (P00533 with tags, fused parts or gaps DEL746-750/T790M/C797S, form open): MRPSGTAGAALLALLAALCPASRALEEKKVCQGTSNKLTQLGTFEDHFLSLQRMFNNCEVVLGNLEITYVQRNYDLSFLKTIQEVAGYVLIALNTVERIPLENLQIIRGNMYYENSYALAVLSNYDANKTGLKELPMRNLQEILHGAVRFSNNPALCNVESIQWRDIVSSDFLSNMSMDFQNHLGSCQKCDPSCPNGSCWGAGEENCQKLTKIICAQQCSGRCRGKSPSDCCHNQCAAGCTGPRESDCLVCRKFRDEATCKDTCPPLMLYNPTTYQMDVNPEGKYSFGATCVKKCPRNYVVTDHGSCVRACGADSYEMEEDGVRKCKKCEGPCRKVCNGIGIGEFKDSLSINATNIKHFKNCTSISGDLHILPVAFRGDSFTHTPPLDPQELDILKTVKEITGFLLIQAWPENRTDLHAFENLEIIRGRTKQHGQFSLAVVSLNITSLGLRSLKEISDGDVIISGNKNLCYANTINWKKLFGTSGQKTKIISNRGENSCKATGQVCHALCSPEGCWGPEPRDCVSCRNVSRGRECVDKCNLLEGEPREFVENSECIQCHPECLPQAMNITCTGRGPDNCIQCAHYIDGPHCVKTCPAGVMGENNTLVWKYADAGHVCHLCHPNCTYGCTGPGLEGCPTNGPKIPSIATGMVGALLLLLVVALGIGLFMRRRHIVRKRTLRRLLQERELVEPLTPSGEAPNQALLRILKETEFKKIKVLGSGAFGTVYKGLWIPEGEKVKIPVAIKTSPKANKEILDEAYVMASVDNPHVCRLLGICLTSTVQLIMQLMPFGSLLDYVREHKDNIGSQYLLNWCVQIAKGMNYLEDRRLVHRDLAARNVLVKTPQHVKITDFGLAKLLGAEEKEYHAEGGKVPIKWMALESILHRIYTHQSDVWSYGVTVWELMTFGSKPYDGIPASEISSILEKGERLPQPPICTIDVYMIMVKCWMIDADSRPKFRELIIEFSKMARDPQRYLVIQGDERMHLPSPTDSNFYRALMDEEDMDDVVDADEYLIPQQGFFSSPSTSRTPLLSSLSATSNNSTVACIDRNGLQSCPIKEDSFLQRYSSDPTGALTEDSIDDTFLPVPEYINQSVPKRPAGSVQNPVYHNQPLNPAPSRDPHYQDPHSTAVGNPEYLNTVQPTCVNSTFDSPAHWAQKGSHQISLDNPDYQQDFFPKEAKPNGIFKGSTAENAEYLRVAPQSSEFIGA

As for `CCc1cc(Nc2nc(Nc3ccc4nccnc4c3N(C)S(C)(=O)=O)c3[nH]ccc3n2)c(OC)cc1N1CCN(C)CC1` [II-1-34], the IC50 in experiment [1] lay within 500 to 2500 nM; in experiment [2] it was 500 to 2500 nM; in experiment [3] it was 50 to 500 nM; in experiment [4], 500 to 2500 nM; in experiment [5], 50 to 500 nM; in experiment [6], 500 to 2500 nM.

`COc1cc(N2CCC(N(C)C)C2)c(C)cc1Nc1nc(Nc2ccc3nccnc3c2N(C)S(C)(=O)=O)c2[nH]ccc2n1` (stereo not drawn) [II-1-35]: the IC50 in experiment [1], in experiment [2], in experiment [3], in experiment [4], in experiment [5] and in experiment [6] was 500 to 2500 nM in each case.

Take `CCc1cc(Nc2nc(Nc3ccc4nccnc4c3N(C)S(C)(=O)=O)c3[nH]ccc3n2)c(OC)cc1N1CCC(N(C)C)C1` (stereo not drawn) [II-1-36]: the IC50 in experiment [1], in experiment [2], in experiment [3], in experiment [4], in experiment [5] and in experiment [6] was 500 to 2500 nM in each case.

Turning to `CCc1cc(Nc2nc(Nc3ccc4nccnc4c3N(C)S(C)(=O)=O)c3occc3n2)c(OC)nc1N1CCC(N2CCN(C)CC2)CC1` [II-1-39], the IC50 in experiment [1] was 500 to 2500 nM; in experiment [2], 50 to 500 nM; in experiment [3] it was ≤ 50 nM; in experiment [4], 500 to 2500 nM; in experiment [5] it was 50 to 500 nM; in experiment [6], 50 to 500 nM.

Turning to `CN1CCN(C2CCN(c3ccc(Nc4nc(Nc5ccc6nccnc6c5N(C)S(C)(=O)=O)c5occc5n4)c(OC(F)(F)F)c3)CC2)CC1` [II-1-40], the IC50 in experiment [1] lay within 500 to 2500 nM; in experiment [2], 500 to 2500 nM; in experiment [3], 500 to 2500 nM; in experiment [4] it was 500 to 2500 nM; in experiment [5], 50 to 500 nM; in experiment [6], 500 to 2500 nM.

With `CCc1cc(Nc2nc(Nc3ccc4nccnc4c3N(C)S(C)(=O)=O)c3occc3n2)c(OC(F)(F)F)cc1N1CCC(N2CCN(C)CC2)CC1` [II-1-41], the IC50 was in the range of 50 to 500 nM in experiment [1]; 50 to 500 nM in experiment [2]; 50 to 500 nM in experiment [3]; 500 to 2500 nM in experiment [4]; 500 to 2500 nM in experiment [5]; 500 to 2500 nM in experiment [6].

Take `C=Cc1cc(Nc2nc(Nc3ccc4nccnc4c3N(C)S(C)(=O)=O)c3occc3n2)c(OC(F)(F)F)cc1N1CCC(N2CCN(C)CC2)CC1` [II-1-42]: the IC50 in experiment [1], in experiment [2], in experiment [3], in experiment [4], in experiment [5] and in experiment [6] was 50 to 500 nM in each case.

`COc1cc(N2CCC(N3CCN(C)CC3)CC2)c(CC2CC2)cc1Nc1nc(Nc2ccc3nccnc3c2N(C)S(C)(=O)=O)c2occc2n1` [II-1-43]: the IC50 in experiment [1] was 50 to 500 nM; in experiment [2] it was 50 to 500 nM; in experiment [3] it was 50 to 500 nM; in experiment [4], 500 to 2500 nM; in experiment [5] it was 500 to 2500 nM; in experiment [6] it was 50 to 500 nM.

Regarding `COc1cc(N2CCC(N3CCN(C)CC3)CC2)c(Cc2ccccc2)cc1Nc1nc(Nc2ccc3nccnc3c2N(C)S(C)(=O)=O)c2occc2n1` [II-1-44], the IC50 in experiment [1] fell in the range of 500 to 2500 nM; in experiment [2], 500 to 2500 nM; in experiment [3], 500 to 2500 nM; in experiment [4], 500 to 2500 nM; in experiment [5] it was 50 to 500 nM; in experiment [6] it was 500 to 2500 nM.

Turning to `COc1ccc(N2CCC(O)CC2)cc1Nc1nc(Nc2ccc3nccnc3c2N(C)S(C)(=O)=O)c2sccc2n1` [II-1-45], the IC50 was 50 to 500 nM in experiment [1]; 50 to 500 nM in experiment [2]; ≤ 50 nM in experiment [3]; 500 to 2500 nM in experiment [4]; 50 to 500 nM in experiment [5]; 50 to 500 nM in experiment [6].

Take `COc1cc(N2CCC(N3CCN(C)CC3)CC2)c(C)cc1Nc1nc(Nc2ccc3nccnc3c2N(C)S(C)(=O)=O)c2ccsc2n1` [II-2-1]: the IC50 in experiment [1] was in the range of 500 to 2500 nM; in experiment [2], 500 to 2500 nM; in experiment [3], 50 to 500 nM; in experiment [4], 500 to 2500 nM; in experiment [5], 500 to 2500 nM; in experiment [6] it was 500 to 2500 nM.

`CCc1cc(Nc2nc(Nc3ccc4nccnc4c3N(C)S(C)(=O)=O)c3ccsc3n2)c(OC(F)(F)F)cc1N1CCC(N2CCN(C)CC2)CC1` [II-2-4]: the IC50 in experiment [1], in experiment [2], in experiment [3], in experiment [4], in experiment [5] and in experiment [6] was 500 to 2500 nM each time.

Take `COc1cc(N2CCC(N3CCN(C)CC3)CC2)c(C)cc1Nc1nc(Nc2ccc3nccnc3c2N(C)S(C)(=O)=O)c2cc[nH]c2n1` [II-2-5]: the IC50 in experiment [1] was 50 to 500 nM; in experiment [2] it was ≤ 50 nM; in experiment [3], ≤ 50 nM; in experiment [4], 50 to 500 nM; in experiment [5] it was ≤ 50 nM; in experiment [6] it was ≤ 50 nM.

In the case of `CCc1cc(Nc2nc(Nc3ccc4nccnc4c3N(C)S(C)(=O)=O)c3cc[nH]c3n2)c(OC)nc1N1CCC(N2CCN(C)CC2)CC1` [II-2-7], the IC50 in experiment [1] is 50 to 500 nM; in experiment [2], ≤ 50 nM; in experiment [3] it was ≤ 50 nM; in experiment [4] it was 50 to 500 nM; in experiment [5], ≤ 50 nM; in experiment [6] it was ≤ 50 nM.

For the compound `CCc1cc(Nc2nc(Nc3ccc4nccnc4c3N(C)S(C)(=O)=O)c3cc[nH]c3n2)c(OC(F)(F)F)cc1N1CCC(N2CCN(C)CC2)CC1` [II-2-8], the IC50 in experiment [1] is 50 to 500 nM; in experiment [2] it was ≤ 50 nM; in experiment [3], ≤ 50 nM; in experiment [4], 50 to 500 nM; in experiment [5], ≤ 50 nM; in experiment [6], 50 to 500 nM.

Take `C=Cc1cc(Nc2nc(Nc3ccc4nccnc4c3N(C)S(C)(=O)=O)c3cc[nH]c3n2)c(OC(F)(F)F)cc1N1CCC(N2CCN(C)CC2)CC1` [II-2-9]: the IC50 in experiment [1] is 50 to 500 nM; in experiment [2] it was ≤ 50 nM; in experiment [3] it was ≤ 50 nM; in experiment [4], 50 to 500 nM; in experiment [5], ≤ 50 nM; in experiment [6] it was ≤ 50 nM.

As for `COc1cc(N2CCN(C)CC2)c(C)cc1Nc1nc(Nc2ccc3nccnc3c2N(C)S(C)(=O)=O)c2cc[nH]c2n1` [II-2-12], the IC50 in experiment [1] was 50 to 500 nM; in experiment [2], ≤ 50 nM; in experiment [3], ≤ 50 nM; in experiment [4], 50 to 500 nM; in experiment [5], ≤ 50 nM; in experiment [6] it was ≤ 50 nM.

For `CCc1cc(Nc2nc(Nc3ccc4nccnc4c3N(C)S(C)(=O)=O)c3cc[nH]c3n2)c(OC)cc1N1CCC(N(C)C)C1` (stereo not drawn) [II-2-17], the IC50 was 500 to 2500 nM in experiment [1]; 50 to 500 nM in experiment [2]; ≤ 50 nM in experiment [3]; 500 to 2500 nM in experiment [4]; 50 to 500 nM in experiment [5]; 50 to 500 nM in experiment [6].

Regarding `COc1cc(N2CCC(N3CCN(C)CC3)CC2)ccc1Nc1nc(Nc2ccc3nccnc3c2N(C)S(C)(=O)=O)c2cc[nH]c2n1` [II-2-22], the IC50 was 500 to 2500 nM in experiment [1]; 50 to 500 nM in experiment [2]; ≤ 50 nM in experiment [3]; 50 to 500 nM in experiment [4]; 50 to 500 nM in experiment [5]; ≤ 50 nM in experiment [6].

As for `COc1ccc(N2CCC(O)CC2)cc1Nc1nc(Nc2ccc3nccnc3c2N(C)S(C)(=O)=O)c2cc[nH]c2n1` [II-2-23], the IC50 in experiment [1] was 50 to 500 nM; in experiment [2], ≤ 50 nM; in experiment [3] it was ≤ 50 nM; in experiment [4] it was 50 to 500 nM; in experiment [5], 50 to 500 nM; in experiment [6], 50 to 500 nM.
